US10456407B2, “Combination therapy for treating cancer” (Epizyme, Inc., priority 2015, dated 2019)

Test system: WSU-DLCL2 cells
Test: RT2 Glucocorticoid signaling PCR array, WSU-DLCL2 (WSU) cell line (Table 4c)
Type: cell-based

SMILES: CCN(c1cc(-c2ccc(CN3CCOCC3)cc2)cc(C(=O)NCc2c(C)cc(C)[nH]c2=O)c1C)C1CCOCC1 [Compound 44]
- Ct Values, MERTK (gene MERTK): 31.323
- ΔCT (B2M), MERTK (gene MERTK): 11.638
- Ct Values, MT2A (gene MT2A): 23.499
- ΔCT (B2M), MT2A (gene MT2A): 3.814
- ΔΔCT, MT2A (gene MT2A, compared to DMSO): −1.453
- Ct Values, NFKBIA (gene NFKBIA): 23.807
- ΔCT (B2M), NFKBIA (gene NFKBIA): 4.122
- ΔΔCT, NFKBIA (gene NFKBIA, compared to DMSO): 1.201
- Ct Values, NR3C1 (gene NR3C1): 23.121
- ΔCT (B2M), NR3C1 (gene NR3C1): 3.436
- ΔΔCT, NR3C1 (gene NR3C1, compared to DMSO): −0.364
- Ct Values, PDCD7 (gene PDCD7): 24.740
- ΔCT (B2M), PDCD7 (gene PDCD7): 5.055
- ΔΔCT, PDCD7 (gene PDCD7, compared to DMSO): 0.326
- Ct Values, PDP1 (gene PDP1): 25.226
- ΔCT (B2M), PDP1 (gene PDP1): 5.541
- ΔΔCT, PDP1 (gene PDP1, compared to DMSO): −0.380
- Ct Values, PER1 (gene PER1): 25.820
- ΔCT (B2M), PER1 (gene PER1): 6.135
- ΔΔCT, PER1 (gene PER1, compared to DMSO): 0.476
- Ct Values, PER2 (gene PER2): 24.837
- ΔCT (B2M), PER2 (gene PER2): 5.152
- ΔΔCT, PER2 (gene PER2, compared to DMSO): 0.151
- Ct Values, PIK3R1 (gene PIK3R1): 24.332
- ΔCT (B2M), PIK3R1 (gene PIK3R1): 4.647
- ΔΔCT, PIK3R1 (gene PIK3R1, compared to DMSO): 0.363
- Ct Values, PLEKHF1 (gene PLEKHF1): 28.660
- ΔCT (B2M), PLEKHF1 (gene PLEKHF1): 8.975
- ΔΔCT, PLEKHF1 (gene PLEKHF1, compared to DMSO): 1.220
- Ct Values, POU2F1 (gene POU2F1): 24.671
- ΔCT (B2M), POU2F1 (gene POU2F1): 4.986
- ΔΔCT, POU2F1 (gene POU2F1, compared to DMSO): 0.202
- Ct Values, POU2F2 (gene POU2F2): 22.678
- ΔCT (B2M), POU2F2 (gene POU2F2): 2.993
- ΔΔCT, POU2F2 (gene POU2F2, compared to DMSO): −0.680
- Ct Values, RASA3 (gene RASA3): 23.208
- ΔCT (B2M), RASA3 (gene RASA3): 3.523
- ΔΔCT, RASA3 (gene RASA3, compared to DMSO): −0.979
- Ct Values, RGS2 (gene RGS2): 24.869
- ΔCT (B2M), RGS2 (gene RGS2): 5.184
- ΔΔCT, RGS2 (gene RGS2, compared to DMSO): 1.732
- Ct Values, RHO8 (gene RHO8): 27.234
- ΔCT (B2M), RHO8 (gene RHO8): 7.549
- ΔΔCT, RHO8 (gene RHO8, compared to DMSO): −2.725
- Ct Values, RPLP0 (gene RPLP0): 15.651
- ΔCT (B2M), RPLP0 (gene RPLP0): −4.004
- Ct Values, SESN1 (gene SESN1): 25.215
- ΔCT (B2M), SESN1 (gene SESN1): 5.530
- ΔΔCT, SESN1 (gene SESN1, compared to DMSO): −3.709
- Ct Values, SGK1 (gene SGK1): 28.624
- ΔCT (B2M), SGK1 (gene SGK1): 8.939
- ΔΔCT, SGK1 (gene SGK1, compared to DMSO): 2.810
- Ct Values, SLC10A6 (gene SLC10A6): 35.684
- ΔCT (B2M), SLC10A6 (gene SLC10A6): 15.999
- ΔΔCT, SLC10A6 (gene SLC10A6, compared to DMSO): −1.168
- Ct Values, SLC19A2 (gene SLC19A2): 26.125
- ΔCT (B2M), SLC19A2 (gene SLC19A2): 6.440
- ΔΔCT, SLC19A2 (gene SLC19A2, compared to DMSO): −0.748
- Ct Values, SLC22A5 (gene SLC22A5): 26.640
- ΔCT (B2M), SLC22A5 (gene SLC22A5): 6.995
- ΔΔCT, SLC22A5 (gene SLC22A5, compared to DMSO): −2.496
- Ct Values, SNTA1 (gene SNTA1): 24.181
- ΔCT (B2M), SNTA1 (gene SNTA1): 4.496
- ΔΔCT, SNTA1 (gene SNTA1, compared to DMSO): −0.492
- Ct Values, SPHK1 (gene SPHK1): 29.333
- ΔCT (B2M), SPHK1 (gene SPHK1): 9.648
- ΔΔCT, SPHK1 (gene SPHK1, compared to DMSO): −0.545
- Ct Values, SPSB1 (gene SPSB1): 26.952
- ΔCT (B2M), SPSB1 (gene SPSB1): 7.267
- ΔΔCT, SPSB1 (gene SPSB1, compared to DMSO): −2.896
- Ct Values, STAT5A (gene STAT5A): 25.495
- ΔCT (B2M), STAT5A (gene STAT5A): 5.810
- ΔΔCT, STAT5A (gene STAT5A, compared to DMSO): −0.307
- Ct Values, STAT5B (gene STAT5B): 23.453
- ΔCT (B2M), STAT5B (gene STAT5B): 3.768
- ΔΔCT, STAT5B (gene STAT5B, compared to DMSO): −0.196
- Ct Values, TBL1XR1 (gene TBL1XR1): 22.111
- ΔCT (B2M), TBL1XR1 (gene TBL1XR1): 2.426
- ΔΔCT, TBL1XR1 (gene TBL1XR1, compared to DMSO): 0.274
- Ct Values, TNF (gene TNF): 25.079
- ΔCT (B2M), TNF (gene TNF): 5.394
- ΔΔCT, TNF (gene TNF, compared to DMSO): 1.150
- Ct Values, TNFAIP3 (gene TNFAIP3): 26.903
- ΔCT (B2M), TNFAIP3 (gene TNFAIP3): 7.218
- ΔΔCT, TNFAIP3 (gene TNFAIP3, compared to DMSO): 1.722
- Ct Values, TSC22D3 (gene TSC22D3): 25.390
- ΔCT (B2M), TSC22D3 (gene TSC22D3): 5.705
- ΔΔCT, TSC22D3 (gene TSC22D3, compared to DMSO): −0.359
- Ct Values, USP2 (gene USP2): 21.903
- ΔCT (B2M), USP2 (gene USP2): 2.218
- ΔΔCT, USP2 (gene USP2, compared to DMSO): −0.978
- Ct Values, USPS4 (gene USPS4): 26.807
- ΔCT (B2M), USPS4 (gene USPS4): 7.122
- ΔΔCT, USPS4 (gene USPS4, compared to DMSO): 0.023
- Ct Values, VDR (gene VDR): 27.293
- ΔCT (B2M), VDR (gene VDR): 7.608
- ΔΔCT, VDR (gene VDR, compared to DMSO): −3.044
- Ct Values, VLDLR (gene VLDLR): 32.346
- ΔCT (B2M), VLDLR (gene VLDLR): 12.661
- ΔΔCT, VLDLR (gene VLDLR, compared to DMSO): 3.859
- Ct Values, ZFP36 (gene ZFP36): 25.541
- ΔCT (B2M), ZFP36 (gene ZFP36): 5.856
- ΔΔCT, ZFP36 (gene ZFP36, compared to DMSO): 0.939
- Ct Values, ZHX3 (gene ZHX3): 24.831
- ΔCT (B2M), ZHX3 (gene ZHX3): 5.146
- ΔΔCT, ZHX3 (gene ZHX3, compared to DMSO): −1.178
- Ct Values, ZNF281 (gene ZNF281): 23.913
- ΔCT (B2M), ZNF281 (gene ZNF281): 4.228
- ΔΔCT, ZNF281 (gene ZNF281, compared to DMSO): −0.329
